Source: PubChem BioAssay (NCI)
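Assay format: 96-well plates, 48-hour exposure. TGI is the concentration that stops growth completely.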

How the values were obtained:
Experiment in all cases: growth of human tumour cells (NCI), 48 h
SK-MEL-2 melanoma = tested on: SK-MEL-2 melanoma
SN12C renal = tested on: SN12C renal
RPMI-8226 leukemia = tested on: RPMI-8226 leukemia
SK-MEL-5 melanoma = tested on: SK-MEL-5 melanoma
OVCAR-5 ovarian = tested on: OVCAR-5 ovarian
SR leukemia = tested on: SR leukemia
HOP-92 NSCLC = tested on: HOP-92 NSCLC
SF-268 CNS = tested on: SF-268 CNS
CAKI-1 renal = tested on: CAKI-1 renal
MDA-N = tested on: MDA-N
A498 renal = tested on: A498 renal
NCI-H460 lung = tested on: NCI-H460 lung
HT29 colon = tested on: HT29 colon
NCI/ADR-RES ovarian = tested on: NCI/ADR-RES ovarian
BT-549 breast = tested on: BT-549 breast
HS 578T breast = tested on: HS 578T breast
HL-60(TB) leukemia = tested on: HL-60(TB) leukemia
DU-145 prostate = tested on: DU-145 prostate
UACC-257 melanoma = tested on: UACC-257 melanoma
RXF 393 renal = tested on: RXF 393 renal
SNB-19 CNS = tested on: SNB-19 CNS
MDA-MB-435 = tested on: MDA-MB-435
786-0 renal = tested on: 786-0 renal
HCC-2998 colon = tested on: HCC-2998 colon
OVCAR-3 ovarian = tested on: OVCAR-3 ovarian
CCRF-CEM leukemia = tested on: CCRF-CEM leukemia
MALME-3M melanoma = tested on: MALME-3M melanoma
T-47D breast = tested on: T-47D breast
EKVX NSCLC = tested on: EKVX NSCLC
SK-OV-3 ovarian = tested on: SK-OV-3 ovarian
COLO 205 colon = tested on: COLO 205 colon
SF-295 CNS = tested on: SF-295 CNS
NCI-H226 lung = tested on: NCI-H226 lung
SK-MEL-28 melanoma = tested on: SK-MEL-28 melanoma
HCT-15 colon = tested on: HCT-15 colon
SW-620 colon = tested on: SW-620 colon
MCF7 breast = tested on: MCF7 breast
MDA-MB-231 breast = tested on: MDA-MB-231 breast
MOLT-4 leukemia = tested on: MOLT-4 leukemia
UACC-62 melanoma = tested on: UACC-62 melanoma
KM12 colon = tested on: KM12 colon
NCI-H23 lung = tested on: NCI-H23 lung
U251 CNS = tested on: U251 CNS
M14 melanoma = tested on: M14 melanoma
SF-539 CNS = tested on: SF-539 CNS
IGROV1 ovarian = tested on: IGROV1 ovarian
HOP-62 NSCLC = tested on: HOP-62 NSCLC
UO-31 renal = tested on: UO-31 renal
OVCAR-8 ovarian = tested on: OVCAR-8 ovarian
OVCAR-4 ovarian = tested on: OVCAR-4 ovarian
LOX IMVI melanoma = tested on: LOX IMVI melanoma

Measured: TGI

O=C(Nc1ccccc1Cl)c1cc(S(=O)(=O)Nc2n[nH]c(=O)n2-c2ccccc2)c(S)cc1Cl
> 100 µM: all assays above
